Test results published in patent publication US5650442A (priority 1994, dated 1997).
Entries after “also recorded” stand apart in the source; their conditions may differ.

Key:
[1] = test system: Chinese hamster V79 lung fibroblasts; assay: Radiation survival of aerobic V79 cells, clonogenic assay; format: cell-based; conditions: 2.0 mM
Protocol: (§1) Chinese hamster V79 lung fibroblasts were cultured in F12 medium supplemented with 10% fetal calf serum and antibiotics. […] The assay system was specifically designed to evaluate radiation sensitivity of cells exposed to radiation under both aerobic and hypoxic conditions (Mitchell et al., Radiat. Res., 96, 422-428 (1983); Russo et al., Radiat. Res., 103, 232-239 (1985); and DeGraff et al., Int. J. Radiat. Oncol. Biol. Phys., 16, 1021-1024 (1989)).
(§2) When cultured cells were exposed to DEA/NO in subsequent examples, DEA/NO in F12 medium with 10 mM HEPES buffer, pH 7.0, was used. […] Control cells in subsequent examples were exposed to 0.02N NaOH, instead of DEA/NO.
(§3) Following irradiation, the various cell suspensions were pipetted, counted, diluted, and plated for macroscopic colony formation. Each dose determination was plated in triplicate and experiments were repeated a minimum of two times. Plates were incubated for seven days, after which colonies were fixed with methanol/acetic acid (3:1), stained with crystal violet, and counted. Colonies containing >50 cells were scored and graphed as FIGS. 1-3. Error bars in the graphs represent the standard deviation of the mean and are shown when larger than the symbol used to designate a data point. Survival curve data were fitted using a linear quadratic model of Albright (Radiat. Res., 112, 331-340 (1987)), and the survival curves shown in the figures represent the best fit curves for the experimental data points. Sensitizer enhancement ratios (SER) were calculated by dividing the radiation dose for control hypoxic conditions by the radiation dose for various agents under hypoxic conditions at the 1% surviving fraction level.

[2] = test system: Chinese hamster V79 lung fibroblasts; assay: Cytotoxicity of the agents alone to V79 cells, clonogenic assay; conditions: 2.0 mM
Protocol: as §1, §2
Radiation survival curves for V79 cells exposed to varying concentrations of DEA/NO and various DEA/NO decomposition products under hypoxic conditions (metabolic hypoxia induction) are shown in FIG. 1A, which is a graph of the surviving fraction versus dose (Gy). Lines in FIG. 1A represent control (.circle-solid.) and 0.1 mM (Δ), 0.5 mM (.largecircle.), 1.0 mM (.quadrature.), and 2.0 mM (.box-solid.) DEA/NO. Survival curves were corrected for drug cytotoxicity as appropriate.
DEA/NO (2.0 mM) was allowed to decompose to liberate NO in medium maintained at 37° C. overnight in a flask open to the air for use as an additional control. The medium containing the DEA/NO decomposition products was then used to evaluate possible effects on radiosensitization.

[3] = test system: Chinese hamster V79 lung fibroblasts; assay: Radiation survival of hypoxic V79 cells (metabolism-mediated oxygen depletion), clonogenic assay, SER; format: cell-based; conditions: for modification of hypoxic radiosensitivity: 2.0 mM; for SER: 2.00 mM, hypoxic, 1% surviving fraction level, ± SD
Protocol: as §1, §2
The induction of hypoxia in dense cell suspensions by metabolism-mediated oxygen depletion was carried out as described by Mitchell et al. (supra) and Phillips et al. (Int. J. Radiat. Oncol. Biol. Phys., 12, 1627-1635 (1986)). Briefly, stock cultures of exponentially growing Chinese hamster V79 lung fibroblasts in 850 cm^2 roller bottles were trypsinized, rinsed with medium, and counted. Samples of 10^8 cells were then placed in 15 ml centrifuge tubes, centrifuged at 1,000 rpm for 5 min at 25° C., and rinsed once with medium or medium containing DEA/NO (final concentrations ranging from 0.1-2.0 mM), nitrite, diethylamine, or DEA/NO that had been allowed to decompose in full medium overnight at 37° C.
The cell suspension was taken up into a 3 ml glass syringe with a 18 gauge spinal needle. Air bubbles were removed, and a 25 gauge needle was fitted onto the syringe. The syringe was rotated by hand at room temperature for 20 min to allow for cellular metabolic oxygen consumption. The syringe was then placed in a lucite block and irradiated. After a given dose of radiation, 1-3 drops of cell suspension were discarded, and 1-2 drops were collected in tubes containing drug-free medium. In this manner an entire hypoxic survival curve for a given treatment condition can be obtained from a single syringe.
(§4) Hypoxic Chinese hamster V79 lung fibroblasts of Example 2 were irradiated at room temperature with 4 MeV photons from a linear accelerator at a dose rate of 1.5 Gy/min. Full electron equilibrium was ensured for all irradiations.
as §3
Radiation survival curves for V79 cells exposed to varying concentrations of DEA/NO and various DEA/NO decomposition products under hypoxic conditions (metabolic hypoxia induction) are shown in FIG. 1A, which is a graph of the surviving fraction versus dose (Gy).

[4] = test system: Chinese hamster V79 cells; assay: Survival of hypoxic V79 cells after a single radiation dose; format: cell-based; conditions: vs control cells
Protocol: Chinese hamster V79 cells were exposed to 15 Gy radiation under hypoxic conditions in the absence or presence of 1 mM SPER/NO (H2 N(CH2)3 N[N(O)NO]^- (CH2)4 NH2^+ (CH2)3 NH2).
Chinese hamster V79 cells were exposed to 20 Gy radiation under hypoxic conditions in the absence or presence of 2 mM SNAP.
Chinese hamster V79 cells were exposed to a single 20 Gy dose of radiation in the absence or presence of 2 mM SIN-1 or PAPA/NO. […] The data are consistent with the requirement of SIN-1 for oxygen, unlike the NONOates, which release NO independent of oxygen levels.

[5] = test system: transplantable murine tumor; conditions: mouse, in vivo; cited from earlier work
[6] = test system: Chinese hamster V79 lung fibroblasts; assay: Radiation survival of hypoxic V79 monolayers gassed with nitrogen and exposed to NO gas; format: cell-based
Protocol: as §4, §3

[7] = test system: hypoxic bacterial cells; conditions: cited from earlier work
[8] = test system: lungs; conditions: NO gas, in vivo; cited from earlier work
[9] = test system: hypoxic cells; conditions: without the nitrobenzoyl group; cited from earlier work
[10] = test system: cells in culture; conditions: aerobic (~20% oxygen) vs hypoxic (<0.5% oxygen); cited from earlier work
[11] = test system: rodent tumors; conditions: hyperbaric oxygen (100%); cited from earlier work
[12] = test system: embryohal ovarian carcinoma (EOC) ascites tumors; assay: Survival of mice with EOC ascites tumors treated with melphalan with or without DEA/NO; format: in vivo, C3H mice
Protocol: Female C3H mice with embryohal ovarian carcinoma (EOC) ascites tumors were generated by intraperitoneal injection of 1.0×10^5 EOC cells at 10 weeks. Eight days later, when ascites were grossly evident, the animals were injected intraperitoneally with phosphate-buffered saline (PBS) as a control, melphalan (6.25 mg/kg), or melphan in combination with DEA/NO (70 mg/kg). Animals were assessed daily for survival.
FIG. 17 is a graph of % survival of animals versus days after treatment showing survival curves for animals treated with melphalan in the presence or absence of DEA/NO compared to control animals. Median survival of the control group was 15 days. Median survival of the group of mice treated with melphalan alone was 20 days, whereas median survival of the group of mice treated with melphalan and DEA/NO was 27 days.

[13] = test system: normal tissues; conditions: clinical radiotherapy trials; cited from earlier work
[14] = test system: Chinese hamster V79 fibroblasts; assay: Protection of V79 cells from cisplatin cytotoxicity; format: cell-based; conditions: 1 mM, 1 hr
Protocol: Chinese hamster V79 fibroblasts were exposed to varying concentrations of cisplatin under aerobic conditions for 1 hr in the presence or absence of 1 mM PAPA/NO, n-propyl-1,3-propane diamine (PPD), or released PAPA/NO under aerobic conditions. Methods used were as described in Examples 2 and 13.

[15] = test system: Chinese hamster V79 fibroblasts; assay: Chemosensitization of V79 cells to bioreductive agents (mitomycin C, SR 4233); conditions: hypoxic, 1 hr

CCNCC [Diethylamine, diethylamine, reference compound]
effect on aerobic radiosensitivity [1]: did not significantly alter the aerobic radiosensitivity | cytotoxicity of decomposition products alone [2]: Neither nitrite, diethylamine, or decomposed DEA/NO alone resulted in any cytotoxicity | modification of hypoxic radiosensitivity [3]: nor did any of these agents significantly modify hypoxic radiosensitivity | SER [3]: 1.0

NCCCNCCCCN(CCCN)/[N+]([O-])=N/O [SPER/NO]
susceptibility of hypoxic cells to radiation ([4]; 1 mM plus 15 Gy): more susceptible to radiation than control cells

Cl.N=c1c[n+](N2CCOCC2)[n-]o1 [SIN-1, 3-morpholino-sydnonimine hydrochloride, reference compound]
enhancement of tumor radiation sensitivity [5]: enhances the radiation sensitivity of a transplantable murine tumor | susceptibility of hypoxic cells to radiation ([4]; 2 mM plus 20 Gy, Example 10): not significantly sensitized to radiation as compared to control cells

CC(=O)N[C@H](C(=O)O)C(C)(C)SN=O [SNAP, S-nitroso-N-acetyl penicillamine, reference compound]
susceptibility of hypoxic cells to radiation ([4]; 2 mM plus 20 Gy, Example 7): significantly more susceptible to radiation than control cells

O=NO [Nitrite, nitrite, reference compound]
effect on aerobic radiosensitivity [1]: did not significantly alter the aerobic radiosensitivity | cytotoxicity of decomposition products alone [2]: Neither nitrite, diethylamine, or decomposed DEA/NO alone resulted in any cytotoxicity | modification of hypoxic radiosensitivity [3]: nor did any of these agents significantly modify hypoxic radiosensitivity | SER [3]: 1.0

nitric oxide [NO gas]
SER ([6]; 10^5 ppm NO, hypoxic): 3.2 | hypoxic cell radiosensitization ([6]; NO gas vs control / oxygen): potent hypoxic cell radiosensitizer; also recorded: not as efficient as oxygen in hypoxic cell radiosensitization | toxicity in the absence of radiation [7]: nontoxic in the absence of radiation | radiosensitization of hypoxic bacterial cells ([7]; ionizing radiation): sensitizes hypoxic bacterial cells to ionizing radiation | damage on administration of high concentrations [8]: damage to the lungs

NCCCCNCCCN [spermidine]
sensitizing properties [9]: failed to demonstrate any sensitizing properties whatsoever

O=O [oxygen]
EC50 ([6]; Cricetulus griseus, Fibroblast, hypoxic cell radiosensitization, read-out: k value (concentration required to yield half the maximum effect)): 2500 µg/mL | enhancement of killing of cells in culture with X-rays (factor) [10]: 2-3 | hypoxic radiosensitization in rodent tumors [11]: some degree of hypoxic radiosensitization in rodent tumors

N[C@@H](Cc1ccc(N(CCCl)CCCl)cc1)C(=O)O [melphalan]
Overall survival vs control group ([12]; log-rank testing): significantly longer than the control group | Median survival ([12]; melphalan 6.25 mg/kg i.p., with or without DEA/NO 70 mg/kg): 20 days

COCC(O)Cn1ccnc1[N+](=O)[O-] (centres unmarked) [Misonidazole, misonidazole]
toxicity to normal tissues [13]: toxic to normal tissues, causing peripheral neuropathy

NCCCNCCCCNCCCN [spermine]
sensitizing properties [9]: failed to demonstrate any sensitizing properties whatsoever

CCCN(CCCN)/[N+]([O-])=N/O [PAPA/NO]
susceptibility of hypoxic cells to radiation ([4]; 2 mM plus 20 Gy, Example 10): much more susceptible to radiation than control cells | protection against aerobic cisplatin-induced cytotoxicity [14]: protected V79 fibroblasts against aerobic cisplatin-induced cytotoxicity | enhancement of hypoxic cytotoxicity of SR 4233 ([15]; 25 μm SR 4233, 1 mM): enhance the hypoxic cytotoxicity of SR 4233 | colonies formed when 100,000 cells were plated ([15]; 25 μm SR 4233 plus 1 mM): no colonies were formed
